From publication PMC10575960, “Functional characterization of a lytic polysaccharide monooxygenase from Schizophyllum commune that degrades non-crystalline substrates” (Scientific Reports, 2023)

How the values were obtained:
ScLPMO9A = target: T1, ScLPMO9A (Schizophyllum commune, UniProt D8Q364); assay: NMR titration, […]-HSQC chemical shift perturbation; type: binding; conditions: copper-free apo enzyme, 15N-labelled, 25 mM Tris-HCl pH 7.0, 25 mM NaCl, 2.3% glycerol, 25 °C
T1 construct: gene LPMO9A; residues 20-247, pelB signal peptide for periplasmic export, E. coli T7 Express, no tag told; single domain without CBM; 15N-labelled copper-free (apo) protein for NMR
T1 sequence (D8Q364 20-247): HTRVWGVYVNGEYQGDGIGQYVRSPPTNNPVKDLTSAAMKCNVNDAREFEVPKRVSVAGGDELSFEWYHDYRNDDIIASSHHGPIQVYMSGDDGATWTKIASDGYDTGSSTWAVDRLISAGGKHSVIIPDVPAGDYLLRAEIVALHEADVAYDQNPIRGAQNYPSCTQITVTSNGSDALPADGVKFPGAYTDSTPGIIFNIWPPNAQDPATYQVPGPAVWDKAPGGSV

NcLPMO9C = target: T2, NcLPMO9C (Neurospora crassa, UniProt Q7SHI8); assay: HPAEC-PAD product analysis; type: biochemical; conditions: 1 mM substrate, 1 µM LPMO, 1 mM ascorbic acid, 50 mM BisTris-HCl pH 6.5, 40 °C, 16 h
T2 construct: gene gh61-3; CBM1-containing enzyme, produced in Pichia pastoris as described earlier, copper-saturated
T2 sequence (Q7SHI8 17-359): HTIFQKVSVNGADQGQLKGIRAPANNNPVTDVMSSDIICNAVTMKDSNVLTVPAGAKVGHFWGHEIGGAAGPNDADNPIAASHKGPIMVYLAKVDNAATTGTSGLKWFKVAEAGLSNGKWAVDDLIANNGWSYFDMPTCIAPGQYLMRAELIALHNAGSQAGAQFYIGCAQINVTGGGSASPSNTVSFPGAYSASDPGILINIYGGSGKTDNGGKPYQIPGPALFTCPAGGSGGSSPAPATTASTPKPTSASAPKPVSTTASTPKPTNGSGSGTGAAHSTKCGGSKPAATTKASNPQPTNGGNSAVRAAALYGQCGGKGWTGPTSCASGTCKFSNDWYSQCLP

Row | Kd (ScLPMO9A; range from two 1H-15N signals) [µM] | Kd (ScLPMO9A; range from four 1H-15N signals) [µM] | SMILES | HPAEC-PAD product analysis (NcLPMO9C)
1 | 30 to 50 |  | OC[C@H]1O[C@@H](O[C@H]2[C@H](O)[C@@H](O)[C@H](O[C@H]3[C@H](O)[C@@H](O)[C@H](O[C@H]4[C@H](O)[C@@H](O)[C@H](O[C@H]5[C@H](O)[C@@H](O)C(O)O[C@@H]5CO)O[C@@H]4CO)O[C@@H]3CO)O[C@@H]2CO)[C@H](O)[C@@H](O)[C@@H]1O (stereo partly shown) [cellopentaose] | 
2 |  | 10 to 40 | OC[C@H]1O[C@@H](O[C@H]2[C@H](O)[C@@H](O)[C@H](O[C@H]3[C@H](O)[C@@H](O)[C@H](O[C@H]4[C@H](O)[C@@H](O)[C@H](O[C@H]5[C@H](O)[C@@H](O)[C@H](O[C@H]6[C@H](O)[C@@H](O)C(O)O[C@@H]6CO)O[C@@H]5CO)O[C@@H]4CO)O[C@@H]3CO)O[C@@H]2CO)[C@H](O)[C@@H](O)[C@@H]1O (stereo partly shown) [cellohexaose] | With cellohexaose (Glc6), NcLPMO9C generated primarily Glc4gemGlc and cellotetraose
3 |  |  | OC[C@H]1O[C@@H](O[C@H]2[C@H](O)[C@@H](O)[C@H](O[C@H]3[C@H](O)[C@@H](O)[C@H](O[C@H]4[C@H](O)[C@@H](O)C(O)O[C@@H]4CO)O[C@@H]3CO)O[C@@H]2CO)[C@H](O)[C@@H](O)[C@@H]1O (stereo partly shown) [cellotetraose] | NcLPMO9C showed limited activity on cellotetraose (Glc4)
